Values of other authors in paper PMC7756498 (Chemistry (Weinheim an Der Bergstrasse, Germany), 2020).

Test system: P. aeruginosa
Conditions: ref [18]

- MIC (anti-Pseudomonas activity): 4 to 16 µg/mL
Substance: sansanmycin B [sansanmycin B 13]
